Among the test systems are OVCAR-3 ovarian; NCI-H23 lung; NCI-H460 lung; HL-60(TB) leukemia; HOP-92 NSCLC; SF-295 CNS; SK-MEL-5 melanoma; SK-OV-3 ovarian; HCC-2998 colon.
Holding throughout (assay): NCI tumour cell line growth inhibition, 48 h

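Five concentrations, 48 hours, 96-well plates. GI50 is the concentration that inhibits growth by half. TGI is the concentration that stops growth completely.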

As to `Cc1ccc(S(=O)(=O)SC(C)(C)C)cc1`, the TGI in the experiment with OVCAR-3 ovarian was 39.3 µM; in the experiment on NCI-H23 lung, 19.5 µM; in the experiment on NCI-H460 lung, greater than 100 µM; with HL-60(TB) leukemia, 40.7 µM; in the experiment on HOP-92 NSCLC, greater than 100 µM; in the experiment with SF-295 CNS it was greater than 100 µM. The TGI in the experiment on SK-MEL-5 melanoma was greater than 100 µM; in the experiment on SK-OV-3 ovarian, greater than 100 µM; in the experiment with HCC-2998 colon, greater than 58.7 µM.
For `CC1=C(/C=C/C(C)=C/C2CC(N(C)C)=CC(=O)O2)C(C)(C)CCC1` (centres undefined), the TGI in the experiment with OVCAR-3 ovarian was 23.7 µM; in the experiment on NCI-H23 lung, 27.8 µM; in the experiment on NCI-H460 lung, 42.4 µM; in the experiment with HL-60(TB) leukemia, 16 µM; in the experiment with HOP-92 NSCLC, 31.1 µM; in the experiment on SF-295 CNS, 26.1 µM. Further, the TGI in the experiment on SK-MEL-5 melanoma is 19.6 µM; in the experiment with SK-OV-3 ovarian it was 30.3 µM; in the experiment on HCC-2998 colon, 26.7 µM.
For `COc1ccc2c(c1OC)CO[C@@H]2[C@H]1c2c(cc3c(c2OC)OCO3)CCN1S(=O)(=O)c1cn(C)cn1`, the GI50 in the experiment with OVCAR-3 ovarian is 1590 nM; in the experiment with NCI-H23 lung it was 3.43 µM; with NCI-H460 lung it was 2870 nM; in the experiment with HL-60(TB) leukemia, 1660 nM; in the experiment on HOP-92 NSCLC it was 783 nM; in the experiment on SF-295 CNS, 1180 nM. Moreover, the GI50 in the experiment with SK-MEL-5 melanoma was 444 nM; with SK-OV-3 ovarian, 2570 nM; in the experiment with HCC-2998 colon it was 3230 nM. Moreover, the TGI in the experiment with OVCAR-3 ovarian is 4.83 µM; in the experiment on NCI-H23 lung, greater than 100 µM; with NCI-H460 lung, 26.8 µM; in the experiment on HL-60(TB) leukemia, 4.9 µM; in the experiment with HOP-92 NSCLC, 87.4 µM; with SF-295 CNS, greater than 100 µM. For the same compound, the TGI in the experiment with SK-MEL-5 melanoma is 6.24 µM; in the experiment on SK-OV-3 ovarian, greater than 100 µM; with HCC-2998 colon it was greater than 100 µM.
As to `CC1=C(C(=O)Nc2ccccc2)C(c2cccc3ccccc23)C(C(=O)Nc2ccccc2)=C(C)N1`, the TGI in the experiment on OVCAR-3 ovarian is 26.4 µM; in the experiment with NCI-H23 lung, 52.5 µM; in the experiment with HL-60(TB) leukemia, 40 µM; in the experiment with HOP-92 NSCLC, 58.8 µM; in the experiment with SF-295 CNS it was 46.6 µM; in the experiment on SK-MEL-5 melanoma it was 33.4 µM. The TGI in the experiment on SK-OV-3 ovarian was determined as 38.5 µM; in the experiment on HCC-2998 colon, 38.6 µM.
On to `CN(C)C(=N/O)/C(=N\O)N(C)C`, for which the TGI with NCI-H23 lung, in the experiment with NCI-H460 lung, in the experiment on HL-60(TB) leukemia, in the experiment on HOP-92 NSCLC, with SF-295 CNS and in the experiment on SK-OV-3 ovarian was greater than 100 µM throughout. The compound also gave a TGI with HCC-2998 colon greater than 100 µM.
`O=C(Nc1ccccc1)Nc1ccc2cc3ccc(NC(=O)Nc4ccccc4)cc3nc2c1`: the GI50 with OVCAR-3 ovarian was 1100 nM; in the experiment with NCI-H23 lung, 1.48 µM; in the experiment with NCI-H460 lung, 3950 nM; with HOP-92 NSCLC it was 1580 nM; in the experiment on SF-295 CNS, 1820 nM; with SK-MEL-5 melanoma, 1650 nM. The GI50 is 2130 nM in the experiment with SK-OV-3 ovarian and 556 nM in the experiment with HCC-2998 colon. In addition, the TGI is 2.45 µM with OVCAR-3 ovarian; 3.3 µM in the experiment with NCI-H23 lung; greater than 100 µM in the experiment with NCI-H460 lung; 3.2 µM in the experiment with HOP-92 NSCLC; 3.72 µM in the experiment on SF-295 CNS; 3.11 µM with SK-MEL-5 melanoma. Also, the values for the TGI in the experiment on SK-OV-3 ovarian and in the experiment on HCC-2998 colon were 4.5 µM and 1.91 µM, respectively.
With `O=C(/C=C/c1ccccc1F)c1ccc(Cl)c(Cl)c1`, the TGI with OVCAR-3 ovarian is greater than 71.6 µM; with NCI-H23 lung it was 24 µM; in the experiment with NCI-H460 lung, greater than 100 µM; in the experiment on HL-60(TB) leukemia it was 51.4 µM; with HOP-92 NSCLC, greater than 100 µM; in the experiment with SF-295 CNS, greater than 100 µM. For the same compound, the TGI with SK-MEL-5 melanoma is greater than 84.1 µM; in the experiment with SK-OV-3 ovarian, greater than 100 µM; in the experiment with HCC-2998 colon it was greater than 71 µM.
`CN(C)CCNC(=O)c1cccc2cc3c(Cl)cccc3nc12`: the TGI in the experiment on OVCAR-3 ovarian stood at 4.9 µM; with NCI-H23 lung, 3.23 µM; in the experiment with HOP-92 NSCLC, 4.28 µM; in the experiment on SK-OV-3 ovarian, 10.8 µM; with HCC-2998 colon, 3.66 µM.
On to `C[CH2][Ge]([CH2]C)([CH2]C)[O]C(=O)C(OC(C)=O)c1ccccc1` (centres undefined), for which the GI50 in the experiment on OVCAR-3 ovarian was greater than 100000 nM; with NCI-H23 lung it was greater than 100 µM; with NCI-H460 lung, greater than 100000 nM; in the experiment with HOP-92 NSCLC, 57900 nM; with SF-295 CNS it was greater than 100000 nM; in the experiment on SK-MEL-5 melanoma, 71600 nM. Also, the GI50 in the experiment on SK-OV-3 ovarian and with HCC-2998 colon was greater than 100000 nM in each case. The TGI in the experiment on OVCAR-3 ovarian, in the experiment on NCI-H23 lung, in the experiment on NCI-H460 lung, in the experiment with HOP-92 NSCLC, in the experiment on SF-295 CNS and in the experiment on SK-MEL-5 melanoma was greater than 100 µM in each case. Besides, the TGI in the experiment on SK-OV-3 ovarian and in the experiment on HCC-2998 colon was greater than 100 µM throughout.
`CNC(=O)c1c(NC(=O)c2ccc(C(C)(C)C)cc2)sc2c(CN(C)C)c(O)ccc12`: the GI50 in the experiment with NCI-H460 lung is 1140 nM; in the experiment on HL-60(TB) leukemia, 1260 nM; in the experiment on HOP-92 NSCLC it was 1200 nM; with SF-295 CNS it was 1860 nM; with SK-MEL-5 melanoma it was 1810 nM; in the experiment with HCC-2998 colon it was 1340 nM. The TGI with NCI-H460 lung was 2.53 µM; with HL-60(TB) leukemia it was 3.18 µM; in the experiment on HOP-92 NSCLC it was 2.74 µM; in the experiment with SF-295 CNS, 3.56 µM; in the experiment with SK-MEL-5 melanoma, 3.25 µM; in the experiment on HCC-2998 colon, 2.94 µM.
In the case of `O=C1C(c2ccc(Br)cc2)=[N+]([O-])c2ccccc21`, the TGI in the experiment with OVCAR-3 ovarian came to 28.2 µM; with NCI-H23 lung, 30.4 µM; with NCI-H460 lung, 34.8 µM; with HL-60(TB) leukemia, 12.4 µM; in the experiment with HOP-92 NSCLC, 20.1 µM; in the experiment with SK-MEL-5 melanoma, 21.6 µM. For the same compound, the TGI was greater than 100 µM with SK-OV-3 ovarian and 29.3 µM in the experiment with HCC-2998 colon.
Take `O=C1C=CC=C/C1=C1/SC(c2ccccc2)=C(O)N1c1ccccc1`: the TGI in the experiment on OVCAR-3 ovarian, in the experiment on NCI-H23 lung, with HOP-92 NSCLC, with SF-295 CNS, in the experiment with SK-MEL-5 melanoma and in the experiment on SK-OV-3 ovarian was greater than 100 µM in each case. Further, in the experiment with HCC-2998 colon, the TGI is greater than 100 µM.
Take `Cc1cccc(C2SCc3nc4ccccc4n32)c1` (centres undefined): the TGI with OVCAR-3 ovarian was 39.1 µM; in the experiment with NCI-H460 lung it was greater than 100 µM; in the experiment with HL-60(TB) leukemia it was 33.5 µM; in the experiment on HOP-92 NSCLC it was 47.9 µM; in the experiment with SF-295 CNS, greater than 100 µM; in the experiment on SK-MEL-5 melanoma it was 28.3 µM. In the experiment on SK-OV-3 ovarian, this compound had a TGI of 72.9 µM.
Consider `CC(=O)c1c2c(cc3c1CC1(C3)Cc3cc4c(c(C(C)=O)c3C1)CCC4)CCC2`, for which the TGI with OVCAR-3 ovarian, in the experiment with NCI-H23 lung, with NCI-H460 lung, in the experiment on HL-60(TB) leukemia, in the experiment with HOP-92 NSCLC and in the experiment on SF-295 CNS was greater than 100 µM throughout. Besides, the TGI in the experiment with SK-MEL-5 melanoma and with HCC-2998 colon was greater than 100 µM throughout.
